The values that follow are results of earlier work, collected in patent publication WO2013169007A1, “Sustained-release complex preparations for treating diabetes with improved drug compliance and method for preparing same” (priority 2012, dated 2013).

Turning to `CCC1=C(C)CN(C(=O)NCCc2ccc(S(=O)(=O)NC(=O)N[C@H]3CC[C@H](C)CC3)cc2)C1=O` [glimepiride], the drug half-life entry (continuous administration) is given as “about 9 hours”. For the same compound, under “in vivo, po”, the “absorption by the gastrointestinal tract” value was “almost completely absorbed”.
